Activity calls are given as the source filed them. The rule behind the calls is not given here.
Legend:
C2C12 [1] = assay: Cytotoxicity against mouse C2C12 cells assessed as reduction in cell viability at 0.78 to 100 uM measured after 24 hrs by MTT assay; format: toxicity, cell-based; settings: c2c12, 24 h, dose 0.78-100 µM
[2] = Upregulation of utrophin expression in mouse C2C12 cells assessed as fold increase at 800 nM measured after 72 hrs by In-cell ELISA method; format: functional
C2C12 [3] = assay: Upregulation of utrophin protein expression in mouse C2C12 level measured after 72 hrs by Westernblot analysis; format: functional, cell-based; settings: dose 200-800 nM
C2C12 [4] = assay: Upregulation of utrophin mRNA expression in mouse C2C12 cells at 800 nM measured after 72 hrs by qRT-PCR analysis; format: functional, cell-based
[5] = Upregulation of utrophin mRNA expression in mouse C2C12 cells assessed as fold increase at 800 nM measured after 72 hrs by qRT-PCR analysis; format: functional
C2C12 [6] = assay: Upregulation of utrophin mRNA expression in mouse C2C12 level measured after 72 hrs by qRT-PCR analysis; format: functional, cell-based; settings: dose 200-800 nM
[7] = Upregulation of utrophin protein expression in mouse C2C12 cells assessed as fold increase at 800 nM measured after 72 hrs by Western blot analysis; format: functional

SMILES | Activity (C2C12 [1]) | fold change (FC) [2] | also measured
CCS(=O)(=O)c1ccc2nc(Nc3ccc(OC)cc3)ncc2c1 | Toxic | 1.09 | 
CCS(=O)(=O)c1ccc2nc(NCc3ccc(OC)cc3)ncc2c1 | Toxic | 1.01 | 
CS(=O)(=O)c1ccc2nc(Nc3ccc(C(F)(F)F)cc3)ncc2c1 | Toxic | 1.06 | 
CS(=O)(=O)c1ccc2nc(NCCc3cc4ccccc4[nH]3)ccc2c1 | Toxic | 1.78 | 
CS(=O)(=O)c1ccc2nc(NCc3ccc(C(F)(F)F)cc3)ccc2c1 | Toxic | 1.27 | 
CCS(=O)(=O)c1ccc2nc(NCc3cc(OC)cc(OC)c3)ccc2c1 | Toxic | 1.42 | 
CCS(=O)(=O)c1ccc2nc(Nc3ccc(O)cc3)ncc2c1 | Toxic | 1.08 | 
CCS(=O)(=O)c1ccc2nc(Nc3cc(OC)cc(OC)c3)ccc2c1 | Toxic | 1.17 | 
CS(=O)(=O)c1ccc2nc(Nc3ccc4c(c3)OCO4)ncc2c1 | Toxic | 0.92 | 
COc1cc(CNc2ncc3cc(S(C)(=O)=O)ccc3n2)cc(OC)c1 | Toxic | 1.67 | 
CC(C)(C)c1ccc(Nc2ncc3cc(S(C)(=O)=O)ccc3n2)cc1 | Toxic | 1.01 | 
CS(=O)(=O)c1ccc2cnc(NCc3ccc(C(F)(F)F)cc3)nc2c1 | Toxic | 1.8 | 
CCS(=O)(=O)c1ccc2nc(NCc3ccc(C(F)(F)F)cc3)ncc2c1 | Toxic | 1.93 | Activity (C2C12 [3]): Dose-Dependent Effect; Activity (C2C12 [4]): Active; fold change (FC) [5]: 1.95; Activity (C2C12 [6]): Dose-Dependent Effect; fold change (FC) [7]: 2.51
CCS(=O)(=O)c1ccc2nc(Nc3ccc(C(F)(F)F)cc3)ncc2c1 | Toxic | 1.25 | 
CCS(=O)(=O)c1ccc2nc(Nc3ccc(OC)cc3)ccc2c1 | Toxic | 1.09 | 
CS(=O)(=O)c1ccc2nc(Nc3cc(O)cc(O)c3)ccc2c1 | Toxic | 1.08 | 
CS(=O)(=O)c1ccc2nc(NCc3ccc4c(c3)OCO4)ccc2c1 | Toxic | 0.97 | 
CCS(=O)(=O)c1ccc2nc(NCc3ccc(C(F)(F)F)cc3)ccc2c1 | Toxic | 1.16 | 
CCS(=O)(=O)c1ccc2nc(NCCc3cc4ccccc4[nH]3)ccc2c1 | Toxic | 1.3 | 
CCS(=O)(=O)c1ccc2nc(Nc3ccc(C(F)(F)F)cc3)ccc2c1 | Toxic | 0.94 | 
CCS(=O)(=O)c1ccc2nc(NCc3ccc(O)cc3)ccc2c1 | Toxic | 0.98 | 
CS(=O)(=O)c1ccc2nc(Nc3ccc(F)cc3)ncc2c1 | Toxic | 1.06 | 
CCS(=O)(=O)c1ccc2nc(Nc3ccc(F)cc3)ncc2c1 | Toxic | 1.23 | 

SMILES | Activity (C2C12 [1]) | fold change (FC) [2] | also measured
CCS(=O)(=O)c1ccc2nc(NCc3ccc(C(C)(C)C)cc3)ncc2c1 | Toxic | 1.07 | 
CC(C)(C)c1ccc(CNc2ncc3cc(S(C)(=O)=O)ccc3n2)cc1 | Toxic | 1.19 | 
CCS(=O)(=O)c1ccc2nc(Nc3cc(O)cc(O)c3)ccc2c1 | Toxic | 1.02 | 
CCS(=O)(=O)c1ccc2cnc(NCc3ccc(F)cc3)nc2c1 | Toxic | 0.67 | 
CCS(=O)(=O)c1ccc2nc(NCc3ccncc3)ccc2c1 | Toxic | 1.73 | 
CCS(=O)(=O)c1ccc2nc(Nc3ccc4c(c3)OCO4)ccc2c1 | Toxic | 0.98 | 
CCS(=O)(=O)c1ccc2nc(Nc3ccc(C(C)(C)C)cc3)ccc2c1 | Toxic | 0.93 | 
CCS(=O)(=O)c1ccc2cnc(NCc3ccc(C(F)(F)F)cc3)nc2c1 | Toxic | 1.51 | 
CCS(=O)(=O)c1ccc2nc(NCc3ccc(C(C)(C)C)cc3)ccc2c1 | Toxic | 0.9 | 
COc1ccc(CNc2ncc3cc(S(C)(=O)=O)ccc3n2)cc1 | Non-Toxic | 1.11 | 
CCS(=O)(=O)c1ccc2nc(Nc3ccc4c(c3)OCO4)ncc2c1 | Toxic | 0.6 | 
CS(=O)(=O)c1ccc2nc(NCc3ccc(C(F)(F)F)cc3)ncc2c1 | Toxic | 1.27 | 
CC(C)(C)c1ccc(CNc2ccc3cc(S(C)(=O)=O)ccc3n2)cc1 | Toxic | 0.99 | 
COc1cc(CNc2ccc3cc(S(C)(=O)=O)ccc3n2)cc(OC)c1 | Toxic | 1.26 | 
CS(=O)(=O)c1ccc2nc(Nc3ccc(C(F)(F)F)cc3)ccc2c1 | Toxic | 0.93 | 
CS(=O)(=O)c1ccc2cnc(NCc3ccc(F)cc3)nc2c1 | Toxic | 0.95 | 
CS(=O)(=O)c1ccc2nc(Nc3ccc4c(c3)OCO4)ccc2c1 | Toxic | 1 | 
CCS(=O)(=O)c1ccc2nc(NCc3ccc4c(c3)OCO4)ccc2c1 | Toxic | 0.98 | 
CCS(=O)(=O)c1ccc2nc(NCCc3cc4ccccc4[nH]3)ncc2c1 | Toxic | 1.73 | 
CS(=O)(=O)c1ccc2nc(Nc3ccc(F)cc3)ccc2c1 | Toxic | 0.93 | 
CCS(=O)(=O)c1ccc2nc(NCc3ccc(F)cc3)ncc2c1 | Toxic | 1.4 | 
CCS(=O)(=O)c1ccc2nc(Nc3ccc(C(C)(C)C)cc3)ncc2c1 | Toxic | 1.13 | 
CS(=O)(=O)c1ccc2nc(NCc3ccc4c(c3)OCO4)ncc2c1 | Toxic | 0.92 | 

SMILES | Activity (C2C12 [1]) | fold change (FC) [2] | also measured
CS(=O)(=O)c1ccc2nc(NCCc3cc4ccccc4[nH]3)ncc2c1 | Toxic | 1.81 | 
CS(=O)(=O)c1ccc2nc(Nc3ccc(O)cc3)ccc2c1 | Toxic | 1.03 | 
CCS(=O)(=O)c1ccc2nc(Nc3ccc(F)cc3)ccc2c1 | Toxic | 0.98 | 
CS(=O)(=O)c1ccc2nc(NCc3ccc(O)cc3)ccc2c1 | Toxic | 1.07 | 
CCS(=O)(=O)c1ccc2nc(NCc3cc(OC)cc(OC)c3)ncc2c1 | Toxic | 1.62 | 
COc1cc(Nc2ccc3cc(S(C)(=O)=O)ccc3n2)cc(OC)c1 | Toxic | 1.32 | 
CS(=O)(=O)c1ccc2nc(NCc3ccc(O)cc3)ncc2c1 | Toxic | 1.09 | 
CS(=O)(=O)c1ccc2nc(NCc3ccncc3)ccc2c1 | Toxic | 1.42 | 
CC(C)(C)c1ccc(Nc2ccc3cc(S(C)(=O)=O)ccc3n2)cc1 | Toxic | 0.61 | 
CS(=O)(=O)c1ccc2nc(NCc3ccc(F)cc3)ccc2c1 | Toxic | 1 | 
CCS(=O)(=O)c1ccc2nc(NCc3ccc(O)cc3)ncc2c1 | Toxic | 1.12 | 
CCS(=O)(=O)c1ccc2nc(Nc3cc(OC)cc(OC)c3)ncc2c1 | Toxic | 1.52 | 
CCS(=O)(=O)c1ccc2nc(NCc3ccncc3)ncc2c1 | Toxic | 1.77 | 
CCS(=O)(=O)c1ccc2nc(NCc3ccc(F)cc3)ccc2c1 | Toxic | 1.2 | 
CCS(=O)(=O)c1ccc2nc(NCc3ccc4c(c3)OCO4)ncc2c1 | Toxic | 0.91 | 
COc1ccc(Nc2ncc3cc(S(C)(=O)=O)ccc3n2)cc1 | Toxic | 1.05 | 
CS(=O)(=O)c1ccc2nc(NCc3ccncc3)ncc2c1 | Toxic | 1.88 | Activity (C2C12 [4]): Active
CCS(=O)(=O)c1ccc2nc(Nc3ccc(O)cc3)ccc2c1 | Toxic | 0.93 | 
COc1ccc(CNc2ccc3cc(S(C)(=O)=O)ccc3n2)cc1 | Toxic | 0.94 | 
COc1cc(Nc2ncc3cc(S(C)(=O)=O)ccc3n2)cc(OC)c1 | Toxic | 1.6 | 
COc1ccc(Nc2ccc3cc(S(C)(=O)=O)ccc3n2)cc1 | Toxic | 0.87 | 
CCS(=O)(=O)c1ccc2nc(NCc3ccc(OC)cc3)ccc2c1 | Toxic | 0.89 | 
CS(=O)(=O)c1ccc2nc(Nc3ccc(O)cc3)ncc2c1 | Toxic | 1.06 | 

From ChEMBL document CHEMBL5506058, “Discovery of Quinazoline and Quinoline-Based Small Molecules as Utrophin Upregulators via AhR Antagonism for the Treatment of Duchenne Muscular Dystrophy” (J Med Chem, 2024)
